The values below come from patent publication US20230364032A1, “USE OF 2-HOBA TO TREAT ATHEROSCLEROSIS” (Vanderbilt University, priority 2020, published 2023).

Data set [1] can be described thus: 2-HOBA and 4-HOBA levels in plasma and tissues of Ldlr−/− mice (LC/MS). Type of data set: in vivo. The settings on record: for concentration at 16 weeks: Ldlr−/− on C57BL/6 background, mouse, plasma, oral, 1 g/L in drinking water, male Ldlr−/− mice after 16 weeks of treatment with 1 g/L of water; for levels in the aorta and heart / plasma levels of 2-HOBA versus 4-HOBA: male Ldlr−/− mice; for levels in the aorta and heart: 30 min after oral gavage; for plasma levels of 2-HOBA versus 4-HOBA: 30 min after oral gavage of 5 mg. As for the experimental part:
FIG. 11A-11C show the concentration of 2-HOBA or 4-HOBA was measured in plasma and tissues from Ldlr^−/− mice. A. Eight week old male Ldlr^−/− mice were fed WD for 16 weeks and were continuously treated with water containing either 2-HOBA (n=9) or 4-HOBA (n=6). Plasma was collected 30 min after oral gavage of mice with either 2-HOBA or 4-HOBA (5 mg each mouse). (Mean±SEM shown for each, p=0.388 Mann-Whitney Test.) B-C. Levels of HOBA were measured in the aorta and heart of male Ldlr^−/− mice consuming a chow diet 30 min after oral gavage of 2-HOBA or 4-HOBA (5 mg each mouse). (Mean±SEM shown for each, N.S. Student t test). The levels of 2-HOBA or 4-HOBA were measured in the plasma and tissues using LC/MS as described in the Methods.
Ldlr^−/− and WT on C57BL/6 background mice were obtained from the Jackson Laboratory. Animal protocols were performed according to the regulations of Vanderbilt University's Institutional Animal Care and Usage Committee. Mice were maintained on chow or a Western-type diet containing 21% milk fat and 0.15% cholesterol (Teklad). Eight week old, female Ldlr^−/− mice on a chow diet were pretreated with vehicle alone (Water) or containing either 1 g/L of 4-HOBA or 1 g/L of 2-HOBA. 4-HOBA (as hydrochloride salt) was synthesized as previously described^21. 2-HOBA (as the acetate salt, CAS 1206675-01-5) was manufactured by TSI Co., Ltd. (Missoula, MT) and obtained from Metabolic Technologies, Inc., Ames, IA^24. A commercial production lot was used (Lot 16120312), and the purity of the commercial lot was verified to be >99% via HPLC and NMR spectroscopy^24. After two weeks, the mice continued to receive these treatments but were switched to a western diet for 16 weeks to induce hypercholesterolemia and atherosclerosis. Similarly, 12 week-old male Ldlr^−/− mice were pretreated with vehicle alone (water) or containing 1 g/L of 2-HOBA for two weeks and were then switched to a western diet for 16 weeks to induce hypercholesterolemia and atherosclerosis, while continuing the treatment with 2-HOBA or water alone^58, 59, 60 Based on the average weight and daily consumption of water per mouse the estimated daily dosage with 1 g/L of 2-HOBA is 200 mg/Kg. […] Eight week old, male Ldlr^−/− mice were fed a western diet for 16 weeks and were continuously treated with water containing either 2-HOBA or 4-HOBA. Urine samples were collected using metabolic cages (2 mice in one cage) during 18 h after oral gavage with either 2-HOBA or 4-HOBA (5 mg each mouse).
(§1) Measurement of 2-HOBA and 4-HOBA was performed by LC/MS after derivatization with phenylisothiocyanate (PITC), and using [^2H4]-2-HOBA as an internal standard as previously described for 2-HOBA^71 (See FIG. 23). For these assays, the Waters Xevo-TQ-Smicro triple quadrupole mass spectrometer operating in positive ion multiple reaction monitoring (MRM) mode monitored the following transitions: for PITC-2-HOBA or PITC-4-HOBA, m/z 259→107@20 eV (quantifier transition) and m/z 259→153 @20 eV (qualifier transition); for PITC-[^2H4]2-HOBA m/z 263 →107@20 eV (quantifier transition), m/z 263→111 @20 eV (qualifier transition). Abundance for PITC-2-HOBA was calculated based on the ratio of peak area versus that of PITC-[^2H4]2-HOBA. Because the transition reactions for PITC-4-HOBA are less efficient than for PITC-2-HOBA, the ratio of peak areas for PITC-4-HOBA/PITC-[^2l H4]2-HOBA was multiplied by the correction factors 3.9 and 5.7 when using the m/z 107 and m/z 153 transition, respectively (See FIG. 24).

Data set [2] in a line: 2-HOBA and 4-HOBA levels in plasma and tissues of C57BL/6J mice after intraperitoneal injection (LC/MS). Type of data set: in vivo, mouse. The settings on record: for liver, spleen, and kidney levels of 2-HOBA versus 4-HOBA: 30 min after intraperitoneal injection. As for the experimental part:
FIG. 12A-12D show the levels of 2-HOBA or 4-HOBA in plasma and tissues from C57BL/6J mice. A. Plasma samples were collected from female C57BL/6J mice on a chow diet after intraperitoneal injection of 1 mg 2-HOBA (n=3) or 1 mg 4-HOBA (n=3). *p<0.01, Student t test. B-D. Levels of 2-HOBA and 4-HOBA in liver (B), spleen (C), and kidney (D) of WT mice 30 min after intraperitoneal injection. (Mean±SEM shown for each, N.S. Student t test). The levels of 2-HOBA or 4-HOBA were measured in the plasma and tissues using LC/MS as described in the Methods.
as §1

Each structure is given as a SMILES string. “Also recorded” adds a separate entry of the source.

For the compound `NCc1ccccc1O` [2-HOBA, 2-hydroxybenzylamine], in data set [1], the concentration at 16 weeks was 469 ± 38 ng/mL; the “levels in the aorta and heart” value is reported as “similar”; the “plasma levels of 2-HOBA versus 4-HOBA” value is “not significantly different”. The “liver, spleen, and kidney levels of 2-HOBA versus 4-HOBA” value in data set [2] is on record as “not significantly different”.

For `NCc1ccc(O)cc1` [4-HOBA, 4-hydroxybenzylamine, reference compound], in data set [1], the concentration at 16 weeks was 25 ± 3 ng/mL; the “levels in the aorta and heart” value is “similar”; the “plasma levels of 2-HOBA versus 4-HOBA” value is “not significantly different”. Further, in data set [2], the “liver, spleen, and kidney levels of 2-HOBA versus 4-HOBA” value is “not significantly different”. Besides, in data set [2] (after intraperitoneal injection), the “clearance, 4-HOBA vs 2-HOBA” value was “more rapid clearance; also recorded: cleared more rapidly”. Also, the “plasma levels after intraperitoneal injection, 4-HOBA vs 2-HOBA” value in data set [2] (female C57BL/6J mice, 1 mg i.p.) is reported as “slightly higher initially”.
